The values that follow come from patent US7176313B2, “Anti acid-fast bacterial agent containing pyridonecarboxylic acids as active ingredient” (Daiichi Pharmaceutical Co., Ltd., priority 2000, dated 2007).

Assay [1] relates to M. intracellulare. Nature of the assay: Antibacterial activity (MIC) against M. intracellulare. It counts as cell-based, Mycobacterium intracellulare. The note with it: Table 3. On the procedure: Antibacterial activity of the compounds of the invention was measured in accordance with the method described in the literature of Antimicrob. Agents and Chemother., 38, 2877 (1994), and the results are shown in Tables 3 to 8 in terms of MIC (μg/ml). In the tables, “OFLX” is an abbreviation of “OFLOXAIN”.

For assay [2], the system named is Mycobacterium tuberculosis (RFP sensitive). Nature of the assay: Antibacterial activity (MIC) against Mycobacterium tuberculosis (RFP sensitive). It counts as cell-based. The note with it: Table 5.
The subject of assay [3] is M. avium. The assay can be described thus: Antibacterial activity (MIC) against M. avium. The note with it: Table 3. It counts as cell-based, Mycobacterium avium. On the procedure:
Antibacterial activity of the compounds of the invention was measured in accordance with the method described in the literature of Antimicrob. […] In the tables, “OFLX” is an abbreviation of “OFLOXAIN”.

In brackets after ≈: the same amount, converted by molar mass. Bounds are passed on as bounds.

Turning to `O=C(O)c1cn(C2CC2)c2c(Cl)c(N3CC4CCCNC4C3)c(F)cc2c1=O` (centres unmarked) [Compd. 1], the MIC in assay [1] (M. intracellulare N-294) was determined as 0.39 µg/mL (≈ 0.961 µM); in assay [1] (M. intracellulare N-313), 0.10 µg/mL (≈ 0.246 µM); in assay [1] (M. intracellulare N-338) it was 0.39 µg/mL (≈ 0.961 µM); in assay [1] (M. intracellulare N-345), 0.39 µg/mL (≈ 0.961 µM); in assay [2] (M. tuberculosis H37Rv), 0.025 µg/mL (≈ 0.0616 µM); in assay [2] (M. tuberculosis Kurono), 0.013 µg/mL (≈ 0.032 µM). Moreover, the MIC in assay [2] (M. tuberculosis No. 40) was 0.025 µg/mL (≈ 0.0616 µM); in assay [2] (M. tuberculosis No. 41), under 0.003 µg/mL; in assay [2] (M. tuberculosis No. 43), 0.20 µg/mL (≈ 0.493 µM); in assay [2] (M. tuberculosis No. 68), 0.025 µg/mL (≈ 0.0616 µM); in assay [3] (M. avium N-357), 0.10 µg/mL (≈ 0.246 µM); in assay [3] (M. avium N-444), 0.20 µg/mL (≈ 0.493 µM). For the same molecule, the results for the MIC in assay [3] (M. avium N-458) and in assay [3] (M. avium N-472) were 0.20 µg/mL (≈ 0.493 µM) and 1.56 µg/mL (≈ 3.84 µM), respectively.
Turning to `O=C(O)c1cn([C@@H]2C[C@@H]2F)c2c(Cl)c(N3CC4CCCNC4C3)c(F)cc2c1=O` (some centres unmarked) [Compd. 2], the minimal inhibitory concentration (MIC) in assay [1] (M. intracellulare N-294) was determined as 0.39 µg/mL (≈ 0.92 µM); in assay [1] (M. intracellulare N-313), 0.20 µg/mL (≈ 0.472 µM); in assay [1] (M. intracellulare N-338), 0.39 µg/mL (≈ 0.92 µM); in assay [1] (M. intracellulare N-345), 0.78 µg/mL (≈ 1.84 µM); in assay [2] (M. tuberculosis H37Rv) it was 0.025 µg/mL (≈ 0.059 µM); in assay [2] (M. tuberculosis Kurono), 0.013 µg/mL (≈ 0.0307 µM). Further, the minimum inhibitory concentration (MIC) was 0.025 µg/mL (≈ 0.059 µM) in assay [2] (M. tuberculosis No. 40); 0.006 µg/mL (≈ 0.0142 µM) in assay [2] (M. tuberculosis No. 41); 0.10 µg/mL (≈ 0.236 µM) in assay [2] (M. tuberculosis No. 43); 0.025 µg/mL (≈ 0.059 µM) in assay [2] (M. tuberculosis No. 68); 0.20 µg/mL (≈ 0.472 µM) in assay [3] (M. avium N-357); 0.39 µg/mL (≈ 0.92 µM) in assay [3] (M. avium N-444). Further, the MIC in assay [3] (M. avium N-458) came out at 0.20 µg/mL (≈ 0.472 µM); in assay [3] (M. avium N-472), 0.78 µg/mL (≈ 1.84 µM).
For `NC1CN(c2c(F)cc3c(=O)c(C(=O)O)cn(C4CC4)c3c2Cl)CC12CC2` (centres unmarked) [Compd. 3], the minimum inhibitory concentration (MIC) in assay [1] (M. intracellulare N-294) came to 1.56 µg/mL (≈ 3.98 µM); in assay [1] (M. intracellulare N-313) it was 0.39 µg/mL (≈ 0.995 µM); in assay [1] (M. intracellulare N-338) it was 1.56 µg/mL (≈ 3.98 µM); in assay [1] (M. intracellulare N-345) it was 1.56 µg/mL (≈ 3.98 µM); in assay [2] (M. tuberculosis H37Rv), 0.10 µg/mL (≈ 0.255 µM); in assay [2] (M. tuberculosis Kurono), 0.05 µg/mL (≈ 0.128 µM). In addition, the minimum inhibitory concentration (MIC) is 0.10 µg/mL (≈ 0.255 µM) in assay [2] (M. tuberculosis No. 40); 0.006 µg/mL (≈ 0.0153 µM) in assay [2] (M. tuberculosis No. 41); 0.78 µg/mL (≈ 1.99 µM) in assay [2] (M. tuberculosis No. 43); 0.10 µg/mL (≈ 0.255 µM) in assay [2] (M. tuberculosis No. 68); 0.39 µg/mL (≈ 0.995 µM) in assay [3] (M. avium N-357); 1.56 µg/mL (≈ 3.98 µM) in assay [3] (M. avium N-444). Besides, the minimum inhibitory concentration (MIC) in assay [3] (M. avium N-458) was 0.78 µg/mL (≈ 1.99 µM); in assay [3] (M. avium N-472) it was 6.25 µg/mL (≈ 16 µM).
Turning to `NC1CN(c2c(F)cc3c(=O)c(C(=O)O)cn([C@@H]4C[C@@H]4F)c3c2Cl)CC12CC2` (some centres unmarked) [Compd. 4], the MIC in assay [1] (M. intracellulare N-294) is 1.56 µg/mL (≈ 3.81 µM); in assay [1] (M. intracellulare N-313) it was 0.39 µg/mL (≈ 0.952 µM); in assay [1] (M. intracellulare N-338), 1.56 µg/mL (≈ 3.81 µM); in assay [1] (M. intracellulare N-345) it was 3.13 µg/mL (≈ 7.64 µM); in assay [2] (M. tuberculosis H37Rv), 0.025 µg/mL (≈ 0.061 µM); in assay [2] (M. tuberculosis Kurono) it was 0.013 µg/mL (≈ 0.0317 µM). In addition, the minimal inhibitory concentration (MIC) in assay [2] (M. tuberculosis No. 40) was 0.025 µg/mL (≈ 0.061 µM); in assay [2] (M. tuberculosis No. 41), under 0.003 µg/mL; in assay [2] (M. tuberculosis No. 43), 0.20 µg/mL (≈ 0.488 µM); in assay [2] (M. tuberculosis No. 68), 0.025 µg/mL (≈ 0.061 µM); in assay [3] (M. avium N-357) it was 0.20 µg/mL (≈ 0.488 µM); in assay [3] (M. avium N-444), 0.78 µg/mL (≈ 1.9 µM). The values for the minimal inhibitory concentration (MIC) in assay [3] (M. avium N-458) and in assay [3] (M. avium N-472) were 0.39 µg/mL (≈ 0.952 µM) and 1.56 µg/mL (≈ 3.81 µM), respectively.
With `COc1c(N2CC3CCCNC3C2)c(F)cc2c(=O)c(C(=O)O)cn(C3CC3)c12` (centres unmarked) [Compd. 5], the minimal inhibitory concentration (MIC) in assay [1] (M. intracellulare N-294) came to 1.56 µg/mL (≈ 3.89 µM); in assay [1] (M. intracellulare N-313) it was 0.78 µg/mL (≈ 1.94 µM); in assay [1] (M. intracellulare N-338) it was 1.56 µg/mL (≈ 3.89 µM); in assay [1] (M. intracellulare N-345), 3.13 µg/mL (≈ 7.8 µM); in assay [2] (M. tuberculosis H37Rv), 0.10 µg/mL (≈ 0.249 µM); in assay [2] (M. tuberculosis Kurono), 0.05 µg/mL (≈ 0.125 µM). Also, the MIC in assay [2] (M. tuberculosis No. 40) came out at 0.10 µg/mL (≈ 0.249 µM); in assay [2] (M. tuberculosis No. 41), 0.025 µg/mL (≈ 0.0623 µM); in assay [2] (M. tuberculosis No. 43) it was 0.78 µg/mL (≈ 1.94 µM); in assay [2] (M. tuberculosis No. 68), 0.10 µg/mL (≈ 0.249 µM); in assay [3] (M. avium N-357), 0.39 µg/mL (≈ 0.972 µM); in assay [3] (M. avium N-444), 1.56 µg/mL (≈ 3.89 µM). This molecule yielded an MIC in assay [3] (M. avium N-458) of 0.78 µg/mL (≈ 1.94 µM).
Consider `COc1c(N2CC3CCCNC3C2)c(F)cc2c(=O)c(C(=O)O)cn([C@@H]3C[C@@H]3F)c12` (some centres unmarked) [Compd. 6], for which the minimum inhibitory concentration (MIC) in assay [1] (M. intracellulare N-294) turned out to be 0.78 µg/mL (≈ 1.86 µM); in assay [1] (M. intracellulare N-313), 0.78 µg/mL (≈ 1.86 µM); in assay [1] (M. intracellulare N-338), 1.56 µg/mL (≈ 3.72 µM); in assay [1] (M. intracellulare N-345), 3.13 µg/mL (≈ 7.46 µM); in assay [2] (M. tuberculosis H37Rv), 0.10 µg/mL (≈ 0.238 µM); in assay [2] (M. tuberculosis Kurono), 0.05 µg/mL (≈ 0.119 µM). Besides, the minimal inhibitory concentration (MIC) in assay [2] (M. tuberculosis No. 40) is 0.10 µg/mL (≈ 0.238 µM); in assay [2] (M. tuberculosis No. 41) it was 0.013 µg/mL (≈ 0.031 µM); in assay [2] (M. tuberculosis No. 43), 0.78 µg/mL (≈ 1.86 µM); in assay [2] (M. tuberculosis No. 68), 0.05 µg/mL (≈ 0.119 µM); in assay [3] (M. avium N-357), 0.39 µg/mL (≈ 0.93 µM); in assay [3] (M. avium N-444), 1.56 µg/mL (≈ 3.72 µM). The MIC in assay [3] (M. avium N-458) is 0.78 µg/mL (≈ 1.86 µM); in assay [3] (M. avium N-472), 3.13 µg/mL (≈ 7.46 µM).
